Key:
[1] = system: TGFβ/SMAD Signaling Pathway SBE reporter cell line; experiment: TGFb reporter assay in HEK293 SBE-LUC reporter cells (luciferase); type: cell-based; conditions: Homo sapiens, key of the table says IC50, read-out: EC50 (the source's name)
Protocol: TGFβ/SMAD Signaling Pathway SBE reporter cell line was obtained from BPS Bioscience. Cells are passed, expanded, and stored in liquid nitrogen as per the supplier's instructions with the exception that growth media is changed to DMEM-C with Geneticin (DMEM supplemented with 10% fetal bovine serum, 1×NEAA, 1 mM Pyruvate, 2 mM glutamine, 50 μg/mL penicillin, 50 U/mL streptomycin and 400 μg/mL of Geneticin). The assay media is MEM supplemented with 0.5% fetal bovine serum, 1×NEAA, 1 mM Pyruvate, 50 μg/mL penicillin and 50 U/mL streptomycin.
Compounds are assayed to measure their activity as ALK5 inhibitors.
The HEK293 SBE-LUC reporter cells from Example 15 were grown in DMEM-C with Geneticin (DMEM supplemented with […], 1×NEAA, 1 mM Pyruvate, 2 mM glutamine, 50 μg/mL penicillin, 50 U/mL streptomycin and 400 ug/mL of Geneticin). The assay media was MEM supplemented with 0.5% fetal bovine serum, 1×NEAA, 1 mM Pyruvate, 50 μg/mL penicillin and 50 U/mL streptomycin.
The HEK293 SBE-LUC reporter cells were harvested from the tissue culture flasks by incubation in small quantity of Versene at room temperature for three to five minutes after the media in the flask is removed and cells rinsed with PBS. Cells were counted and diluted in the assay media at ˜0.8×10^6 cells/mL then 50 uL/well were added to 96-well assay plate. Test samples (at desired concentrations diluted in assay media) were added to assay plate containing the 50 uL/well of cells (or media only), 50 uL per well, and incubated for 5-6 hours at 37° C. in a 5% CO2 humidified incubator. After that time, 15 uL of TGFb diluted to 12.5 ng/mL in the assay media was added to the plate. Controls included TGFb titration (from 25 to 0 ng/mL) without inhibitors, and media only (without cells, inhibitor or TGFb). Plates were incubated at 37° C. in a 5% CO2 humidified incubator for 18h. Luciferase substrate solution was subsequently added at 75 uL per well, incubated in dark with shaking at room temperature for 10 min, and luminescence was measured using a luminometer.

ALK5 = target: T1, ALK5 (Homo sapiens, UniProt P36897); experiment: ALK5 enzyme inhibition assay (casein substrate, 10 uM ATP, 33P-ATP, filter-binding; Reaction Biology Corp); type: biochemical
T1 construct: purchased Reaction Biology Corp (Malvern, Pa.)
T1 sequence (P36897 34-503): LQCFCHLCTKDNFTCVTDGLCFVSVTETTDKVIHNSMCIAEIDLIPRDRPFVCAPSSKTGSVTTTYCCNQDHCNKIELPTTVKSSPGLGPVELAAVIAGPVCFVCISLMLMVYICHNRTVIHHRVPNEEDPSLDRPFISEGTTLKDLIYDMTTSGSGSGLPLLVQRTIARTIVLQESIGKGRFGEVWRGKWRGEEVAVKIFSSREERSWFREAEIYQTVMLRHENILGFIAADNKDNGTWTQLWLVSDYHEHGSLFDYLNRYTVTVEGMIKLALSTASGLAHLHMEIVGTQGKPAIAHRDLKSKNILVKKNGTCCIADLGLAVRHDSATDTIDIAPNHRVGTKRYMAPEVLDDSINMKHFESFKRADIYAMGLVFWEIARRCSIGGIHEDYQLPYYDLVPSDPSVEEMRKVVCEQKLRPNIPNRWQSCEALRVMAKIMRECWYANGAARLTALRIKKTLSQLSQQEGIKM
Protocol: ALK5 enzyme inhibition assays were performed by Reaction Biology Corp (Malvern, Pa.). 1 mg/mL of peptide substrate (casein) and 10 uM ATP were prepared in a mixture of fresh reaction buffer. The kinase was delivered into the substrate solution which was gently mixed. Compounds in 100% DMSO were added to the kinase reaction mixture by Acoustic technology (Echo550; nanoliter range) and the mixture was incubated for 20 min at room temperature. ^33P-ATP (Specific activity 10 uCi/uL) was added into the reaction mixture to initiate the reaction and the reaction mixture was incubated for 2 hours at room temperature. Radioactivity was detected by filter-binding method and kinase activity data were expressed as the percent remaining kinase activity in test samples compared to vehicle (dimethyl sulfoxide) reactions. IC50 values and curve fits were obtained using Prism (GraphPad Software).

[2] = system: HEK293 SBE-LUC reporter cells transfected to stably express full length human ASGR1; experiment: Cell reporter assay of anti-ASGR1-ALK5 inhibitor conjugates: TGFβ1-mediated luciferase expression; type: cell-based; conditions: inhibition of TGFβ1-mediated luciferase expression, 6 h preincubation, human TGFβ1 1.6 ng/ml, further 18 h
Protocol: Anti-ASGR1 antibodies conjugated to an ALK5 inhibitor were tested via a cell reporter assay. Briefly, HEK293 SBE-LUC reporter cells transfected to stably express full length human ASGR1 were seeded in 96 well plates at 40,000 cells/well in an assay media of minimum essential media containing 0.5% fetal bovine serum, 1% nonessential amino acids, 1% sodium pyruvate and 1% Pen/Strep. Anti-ASGR1-ALK5 inhibitor conjugates and controls were added to wells in a dose titration ranging from 5 μM to 0.064 nM to HEK293 SBE-LUC and ASGR1-HEK293 SBE-LUC cells. After incubating for 6 hours at 37° C. in a 5% CO2 environment, human TGFβ 1 (PeproTech Inc.) was added to a final concentration of 1.6 ng/ml followed by an additional 18 hour incubation under the same conditions. Luciferase STEADY-GLO® reagent (Promega Corporation) was added at 70 μl/well and incubated with shaking for 10 minutes. Luciferase activity was determined by measuring luminescence with an ENVISION® Plate Reader (Perkin-Elmer Inc.). Data were fit with a four-parameter non-linear regression to calculate IC50 values using Prism Software v7.04 (GraphPad Inc.).

Row | IC50 [1] [nM] | IC50 (ALK5; Table 11) [nM] | IC50 (ALK5; Table 12) [nM] | SMILES | IC50 [2] [nM]
1 | 0.1 to 10 | 0.1 to 50 | – | Cc1cccc(-c2nc(CNCCc3c(F)cccc3F)[nH]c2-c2ccc3ncnn3c2)n1 [Compound 60] | 13.4
2 | 0.1 to 10 | 100 to 1000 | – | Cc1cccc(-c2nc(CNCCc3ccc(F)cc3F)[nH]c2-c2ccc3ncnn3c2)n1 [Compound 63] | –
3 | 0.1 to 10 | 0.1 to 50 | – | Cc1cccc(-c2nc(CNCc3cccc(Cl)c3C)[nH]c2-c2ccc3ncnn3c2)n1 [Compound 47] | –
4 | 100 to 1000 | 100 to 1000 | – | Cc1cccc(-c2nc(CNCc3ccccc3-c3ccc(CN)cc3)[nH]c2-c2ccc3ncnn3c2)n1 [Compound 34] | –
5 | 10 to 100 | 100 to 1000 | – | Cc1cccc(-c2nc(CNCc3ccccc3-c3ccccn3)[nH]c2-c2ccc3ncnn3c2)n1 [Compound 40] | –
6 | 10 to 100 | 0.1 to 50 | – | Cc1cccc(-c2nc(CNCc3cccc(C)c3-c3ccccc3)[nH]c2-c2ccc3ncnn3c2)n1 [Compound 48] | –
7 | 10 to 100 | 100 to 1000 | – | Cc1cccc(-c2nc(CNCc3ccccc3-c3ccccc3)[nH]c2-c2ccc3ncccc3c2)n1 [Compound 91] | –
8 | 0.1 to 10 | 100 to 1000 | – | COc1ccccc1CCNCc1nc(-c2cccc(C)n2)c(-c2ccc3ncccc3n2)[nH]1 [Compound 84] | –
9 | 100 to 1000 | 100 to 1000 | – | Cc1cccc(-c2nc(CNCc3ccccc3-c3cccc(CNC(=O)OC(C)(C)C)c3)[nH]c2-c2ccc3ncnn3c2)n1 [Compound 30] | –
10 | 0.1 to 10 | 0.1 to 50 | – | Cc1cccc(-c2nc(CNCCc3cccc(F)c3)[nH]c2-c2ccc3ncnn3c2)n1 [Compound 61] | –
11 | 100 to 1000 | 100 to 1000 | – | Cc1cccc(-c2nc(CNCc3ccccc3-c3ccccc3CNC(=O)OC(C)(C)C)[nH]c2-c2ccc3ncnn3c2)n1 [Compound 29] | –
12 | 0.1 to 10 | 100 to 1000 | – | Cc1cccc(-c2nc(CNCCCc3ccccc3)[nH]c2-c2ccc3ncnn3c2)n1 [Compound 64] | –
13 | 100 to 1000 | 100 to 1000 | – | Cc1cccc(-c2nc(CNCc3ccccc3C3CCCCC3)[nH]c2-c2ccc3ncnn3c2)n1 [Compound 43] | –
14 | 100 to 1000 | 1000 to 10000 | – | COc1ccc(CNCc2nc(-c3cccc(C)n3)c(-c3ccc4ncnn4c3)[nH]2)cc1 [Compound 8] | –
15 | 100 to 1000 | 50 to 100 | – | COC(=O)[C@H](NCc1nc(-c2cccc(C)n2)c(-c2ccc3ncnn3c2)[nH]1)c1ccccc1 [Compound 15] | –
16 | 100 to 1000 | – | 100 to 1000 | Cc1cccc(-c2nc(CNc3cccc4c3C(N)CC4)[nH]c2-c2ccc3ncnn3c2)n1 (centres unmarked) [Compound 1.20] | –
17 | 10 to 100 | – | 100 to 1000 | Cc1cccc(-c2nc(CN[C@@H]3CCc4ccccc43)[nH]c2-c2ccn3ncnc3c2)n1 [Compound 1.30] | –
18 | 0.1 to 10 | 100 to 1000 | – | COc1cccc(CNCc2nc(-c3cccc(C)n3)c(-c3ccc4ncnn4c3)[nH]2)c1 [Compound 7] | –
19 | 0.1 to 10 | 100 to 1000 | – | Cc1cccc(-c2nc(CNCCOc3ccccc3)[nH]c2-c2ccc3ncnn3c2)n1 [Compound 65] | –

Row | IC50 [1] [nM] | IC50 (ALK5; Table 11) [nM] | IC50 (ALK5; Table 12) [nM] | SMILES | IC50 [2] [nM]
20 | 0.1 to 10 | 0.1 to 50 | – | Cc1cccc(-c2nc(CNCc3ccccc3-c3ccccc3)[nH]c2-c2ccc3ncnn3c2)n1 [Compound 24] | –
21 | 100 to 1000 | – | 1000 to 10000 | Cc1cccc(-c2nc(C3CCN(C(=O)OC(C)(C)C)C3)[nH]c2-c2ccc3ncnn3c2)n1 (centres unmarked) [Compound 1.51] | –
22 | 0.1 to 10 | 0.1 to 50 | – | Cc1cccc(-c2nc(CNCc3ccccc3Cl)[nH]c2-c2ccn3ncnc3c2)n1 [Compound 10] | –
23 | 0.1 to 10 | 0.1 to 50 | – | Cc1cccc(-c2nc(CNCc3ccccc3Oc3ccccc3)[nH]c2-c2ccc3ncnn3c2)n1 [Compound 53] | –
24 | 100 to 1000 | – | 1000 to 10000 | Cc1cccc(-c2nc(CNc3cccc4c3CC(N)C4)[nH]c2-c2ccc3ncnn3c2)n1 (centres unmarked) [Compound 1.22] | –
25 | 0.1 to 10 | 50 to 100 | – | Cc1cccc(-c2nc(CNCc3ccccc3-c3cccnc3)[nH]c2-c2ccc3ncnn3c2)n1 [Compound 41] | –
26 | 10 to 100 | 100 to 1000 | – | Cc1cccc(-c2nc(CNCc3ccccc3C3CCCC3)[nH]c2-c2ccc3ncnn3c2)n1 [Compound 44] | –
27 | 100 to 1000 | – | 1000 to 10000 | Cc1cccc(-c2nc(C3CN(C(=O)OC(C)(C)C)C3)[nH]c2-c2ccc3ncnn3c2)n1 [Compound 1.52] | –
28 | 10 to 100 | 50 to 100 | – | Cc1cccc(-c2nc(CNCc3ccccc3-c3cccc(F)c3)[nH]c2-c2ccc3ncnn3c2)n1 [Compound 37] | –
29 | 100 to 1000 | – | 10 to 100 | CC(=O)NC1Cc2cccc(NCc3nc(-c4cccc(C)n4)c(-c4ccc5ncnn5c4)[nH]3)c2C1 (centres unmarked) [Compound 1.23] | –
30 | 100 to 1000 | 0.1 to 50 | – | Cc1cccc(-c2nc(CNCc3ccccc3-c3ccccc3)[nH]c2-c2ccc3c(c2)OCO3)n1 [Compound 71] | –
31 | 0.1 to 10 | 0.1 to 50 | – | Cc1cccc(-c2nc(CNCc3c(Cl)cccc3Cl)[nH]c2-c2ccc3ncnn3c2)n1 [Compound 6] | –
32 | 0.1 to 10 | 100 to 1000 | – | Cc1cccc(-c2nc(CNCCc3ccc(F)cc3)[nH]c2-c2ccc3ncnn3c2)n1 [Compound 62] | –
33 | 10 to 100 | 0.1 to 50 | – | Cc1cccc(-c2nc(CNCc3ccccc3-c3ccccc3)[nH]c2-c2ccc3ncccc3n2)n1 [Compound 68] | –
34 | 0.1 to 10 | 0.1 to 50 | – | COc1ccccc1CCNCc1nc(-c2cccc(C)n2)c(-c2ccc3nccnc3c2)[nH]1 [Compound 87] | –
35 | 0.1 to 10 | 0.1 to 50 | – | Cc1cccc(-c2nc(CNCCN(C)c3ccccc3)[nH]c2-c2ccc3nccnc3c2)n1 [Compound 88] | –
36 | 100 to 1000 | – | 100 to 1000 | Cc1cccc(-c2nc(CNc3cccc4c3CCC4N)[nH]c2-c2ccc3ncnn3c2)n1 (centres unmarked) [Compound 1.6] | –
37 | 0.1 to 10 | 0.1 to 50 | – | Cc1cccc(-c2nc(CNCc3ccccc3C)[nH]c2-c2ccc3nccnc3c2)n1 [Compound 86] | –
38 | 100 to 1000 | 0.1 to 50 | – | COC(=O)[C@@H](NCc1nc(-c2cccc(C)n2)c(-c2ccc3ncnn3c2)[nH]1)c1ccccc1 [Compound 16] | –
